In PubChem BioAssay (NCI) one finds GI50 and TGI data, which are given here for seven compounds.

Values joined by “and” are separate entries in the source; they are usually repeats but may differ in a detail not shown here. Identical values can stand only once.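 Grown in 96-well plates, cells were treated for 48 hours with each compound at five concentrations. Insufficient inhibition: endpoint recorded as highest concentration tested. GI50 = concentration required for 50% inhibition of growth. TGI denotes the concentration required for complete inhibition of growth.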

Test systems include CAKI-1 renal; EKVX NSCLC; K-562 leukemia; MALME-3M melanoma; MCF7 breast; MDA-MB-231 breast; OVCAR-8 ovarian; SF-268 CNS; SF-295 CNS; SK-MEL-28 melanoma.
Common to all, as to experiment: NCI-60 cell line screen, 48 h

As for `C=CC(=O)NCc1cccc(Nc2ncc(Br)c(NCCCNC(=O)C3CCC3)n2)c1`, the GI50 in the assay with CAKI-1 renal is 0.279 µM and 0.262 µM; in the assay on EKVX NSCLC, 1.59 µM and 2.59 µM; with K-562 leukemia, 2.99 µM and 0.937 µM; in the assay on MALME-3M melanoma, 1.62 µM and 1.68 µM; with MCF7 breast, 1.88 µM and 0.537 µM; with MDA-MB-231 breast it was 0.567 µM and 0.463 µM. Further, the GI50 in the assay with OVCAR-8 ovarian is 1.99 µM and 1.72 µM; in the assay with SF-268 CNS, 0.297 µM and 0.296 µM; with SF-295 CNS, 1.1 µM and 1.32 µM; in the assay on SK-MEL-28 melanoma it was 2.44 µM and 2.26 µM. In addition, the TGI in the assay with CAKI-1 renal was 1.45 µM and 1.48 µM; in the assay on EKVX NSCLC, 6.07 µM and 14.9 µM; with K-562 leukemia, 12.5 µM and > 25 µM; in the assay on MALME-3M melanoma, 5.78 µM and 6.56 µM; with MCF7 breast, 12.5 µM and 4.77 µM; in the assay on MDA-MB-231 breast it was 11.6 µM and 1.8 µM. The TGI in the assay with OVCAR-8 ovarian was 12.5 µM and > 25 µM; in the assay with SF-268 CNS, 2.57 µM and 4.07 µM; in the assay on SF-295 CNS, 8.36 µM and 16.8 µM; in the assay on SK-MEL-28 melanoma, 9.94 µM and 9.29 µM.

Consider `NC(=O)c1ccc(NN=O)nc1`, for which the TGI with CAKI-1 renal, in the assay with EKVX NSCLC, in the assay with K-562 leukemia, in the assay on MALME-3M melanoma, with MCF7 breast and in the assay with MDA-MB-231 breast was more than 100 µM each time. For the same compound, the TGI with OVCAR-8 ovarian, in the assay with SF-268 CNS, with SF-295 CNS and in the assay on SK-MEL-28 melanoma was more than 100 µM throughout.

Regarding `O=[N+]([O-])c1ccc(Sc2ncnc3nc[nH]c23)c2nonc12`, the GI50 in the assay on CAKI-1 renal is 5.97 µM; in the assay on EKVX NSCLC, 18.1 µM; in the assay on K-562 leukemia it was 0.436 µM; in the assay on MALME-3M melanoma, 13.1 µM; with MCF7 breast it was 1.72 µM; with MDA-MB-231 breast, 8.15 µM. Besides, the GI50 in the assay with OVCAR-8 ovarian is 7.23 µM; in the assay with SF-268 CNS, 5 µM; in the assay with SF-295 CNS, 3.87 µM; in the assay on SK-MEL-28 melanoma, 5.79 µM. In addition, the TGI in the assay with CAKI-1 renal was 33.7 µM; in the assay on EKVX NSCLC, 36.5 µM; with K-562 leukemia it was 2.72 µM; with MALME-3M melanoma it was more than 100 µM; in the assay on MCF7 breast, 12.2 µM; in the assay with MDA-MB-231 breast it was 24.2 µM. Besides, the TGI with OVCAR-8 ovarian was 28.9 µM; in the assay with SF-268 CNS, 19.7 µM; with SF-295 CNS it was 20.6 µM; in the assay on SK-MEL-28 melanoma, 18.5 µM.

Take `C=CC(C1=CC(=O)C(OC)=CC1=O)c1ccccc1` (centres undefined): the TGI stood at 31.7 µM in the assay on CAKI-1 renal; 30.5 µM in the assay with EKVX NSCLC; 13.2 µM with K-562 leukemia; 28.7 µM in the assay on MALME-3M melanoma; 26.2 µM in the assay with MCF7 breast; 19.2 µM in the assay on MDA-MB-231 breast. In addition, the TGI in the assay with OVCAR-8 ovarian is 58.7 µM; in the assay with SF-268 CNS, 41.3 µM; with SF-295 CNS, 27.6 µM; in the assay with SK-MEL-28 melanoma, 29.1 µM.

Regarding `COC(=O)C(=O)C(C(=O)C(=O)Nc1nc2ccc(C)cc2s1)c1nc2ccc([N+](=O)[O-])cc2[nH]c1=O` (centres undefined), the TGI in the assay with CAKI-1 renal, with EKVX NSCLC, with K-562 leukemia, in the assay on MALME-3M melanoma, in the assay on MCF7 breast and with MDA-MB-231 breast was more than 100 µM each time. Moreover, the TGI in the assay with OVCAR-8 ovarian, with SF-268 CNS, in the assay on SF-295 CNS and with SK-MEL-28 melanoma was more than 100 µM throughout.

Regarding `O=C1c2ccccc2S(=O)(=O)N1CSC(=S)N1CCCCC1`, the GI50 is more than 100 µM with CAKI-1 renal; more than 100 µM in the assay with EKVX NSCLC; more than 94.6 µM in the assay with K-562 leukemia; more than 100 µM in the assay with MALME-3M melanoma; more than 100 µM in the assay on MDA-MB-231 breast; more than 100 µM in the assay on OVCAR-8 ovarian. For the same compound, the GI50 with SF-268 CNS, in the assay on SF-295 CNS and in the assay with SK-MEL-28 melanoma was more than 100 µM in each case. Moreover, the TGI with CAKI-1 renal, in the assay with EKVX NSCLC, with K-562 leukemia, in the assay on MALME-3M melanoma, with MCF7 breast and in the assay on MDA-MB-231 breast was more than 100 µM in each case. Also, the TGI with OVCAR-8 ovarian, in the assay with SF-268 CNS, in the assay with SF-295 CNS and with SK-MEL-28 melanoma was more than 100 µM in each case.

With `COc1ccc(C(SCC(N)C(=O)O)(c2ccccc2)c2ccccc2)cc1` (centres undefined), the GI50 in the assay on CAKI-1 renal is 0.457 µM; in the assay with EKVX NSCLC it was 0.436 µM; with K-562 leukemia it was 0.0567 µM; in the assay on MALME-3M melanoma it was more than 43 µM; in the assay with MCF7 breast, 0.0385 µM; in the assay with MDA-MB-231 breast it was 0.23 µM. Also, the GI50 in the assay with OVCAR-8 ovarian is 0.482 µM; in the assay on SF-268 CNS, 0.0877 µM; with SF-295 CNS it was 0.0948 µM; in the assay on SK-MEL-28 melanoma, 3.12 µM. In addition, the TGI with CAKI-1 renal is more than 100 µM; in the assay on EKVX NSCLC, more than 100 µM; in the assay with K-562 leukemia, more than 45.8 µM; with MALME-3M melanoma it was more than 100 µM; with MCF7 breast, more than 100 µM; in the assay with MDA-MB-231 breast, 4.72 µM. The TGI with OVCAR-8 ovarian is more than 100 µM; in the assay with SF-268 CNS, 71.5 µM; in the assay with SF-295 CNS it was more than 100 µM; with SK-MEL-28 melanoma, more than 100 µM.
